PubChem BioAssay (NCI)
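Cultured in 96-well plates, cells were exposed to test compound for 48 hours across five concentrations. Definition used: TGI = concentration required for complete inhibition of growth.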

Legend:
Assay in all cases: NCI anticancer screen, dose series, 48 h
SF-268 CNS = test system: SF-268 CNS
IGROV1 ovarian = test system: IGROV1 ovarian
SF-539 CNS = test system: SF-539 CNS
NCI-H226 lung = test system: NCI-H226 lung
K-562 leukemia = test system: K-562 leukemia
U251 CNS = test system: U251 CNS
CCRF-CEM leukemia = test system: CCRF-CEM leukemia
UACC-257 melanoma = test system: UACC-257 melanoma
COLO 205 colon = test system: COLO 205 colon
EKVX NSCLC = test system: EKVX NSCLC
HT29 colon = test system: HT29 colon
SK-MEL-5 melanoma = test system: SK-MEL-5 melanoma
DU-145 prostate = test system: DU-145 prostate
NCI/ADR-RES ovarian = test system: NCI/ADR-RES ovarian
MCF7 breast = test system: MCF7 breast
SNB-75 CNS = test system: SNB-75 CNS
786-0 renal = test system: 786-0 renal
NCI-H522 lung = test system: NCI-H522 lung
UO-31 renal = test system: UO-31 renal
MDA-N = test system: MDA-N
HCT-116 colon = test system: HCT-116 colon
LOX IMVI melanoma = test system: LOX IMVI melanoma
T-47D breast = test system: T-47D breast
A549 NSCLC = test system: A549 NSCLC
HOP-62 NSCLC = test system: HOP-62 NSCLC
HOP-92 NSCLC = test system: HOP-92 NSCLC
SF-295 CNS = test system: SF-295 CNS
HCC-2998 colon = test system: HCC-2998 colon
HL-60(TB) leukemia = test system: HL-60(TB) leukemia
RXF 393 renal = test system: RXF 393 renal
RPMI-8226 leukemia = test system: RPMI-8226 leukemia
HS 578T breast = test system: HS 578T breast
OVCAR-8 ovarian = test system: OVCAR-8 ovarian
MALME-3M melanoma = test system: MALME-3M melanoma
CAKI-1 renal = test system: CAKI-1 renal
ACHN renal = test system: ACHN renal
KM12 colon = test system: KM12 colon
SR leukemia = test system: SR leukemia
PC-3 prostate = test system: PC-3 prostate
SNB-19 CNS = test system: SNB-19 CNS
SK-MEL-2 melanoma = test system: SK-MEL-2 melanoma
A498 renal = test system: A498 renal
TK-10 renal = test system: TK-10 renal
NCI-H460 lung = test system: NCI-H460 lung
M14 melanoma = test system: M14 melanoma
OVCAR-4 ovarian = test system: OVCAR-4 ovarian
SK-OV-3 ovarian = test system: SK-OV-3 ovarian
MDA-MB-435 = test system: MDA-MB-435
OVCAR-5 ovarian = test system: OVCAR-5 ovarian
NCI-H23 lung = test system: NCI-H23 lung
SW-620 colon = test system: SW-620 colon
SK-MEL-28 melanoma = test system: SK-MEL-28 melanoma
MOLT-4 leukemia = test system: MOLT-4 leukemia
OVCAR-3 ovarian = test system: OVCAR-3 ovarian
SN12C renal = test system: SN12C renal
MDA-MB-231 breast = test system: MDA-MB-231 breast
HCT-15 colon = test system: HCT-15 colon

Measured: TGI

CC(C)(C)C(=O)/C=C(\OB(F)F)C(C)(C)C
> 100 µM: all assays above
